Columns and labels:
[1] = target: T1, bovine serum albumin (BSA) (Bos taurus, UniProt P02769); test: BSA binding by fluorescence quenching
T1 construct: purchased Sigma-Aldrich
Description: Upon progressive additions of various concentrations of EGCG and TMCG to BSA, the emission intensity decreases, as shown in Figure 4(a). The quenching of the fluorescence intensity of BSA implies that the catechins bind at close proximity to the tryptophan and tyrosine residues and that the molecular arrangement of BSA is affected by the interactions. […] The binding constants (KA) for the BSA-EGCG and BSA-TMCG complexes are 1.54 × 10^7 M^−1 and 1.9 × 10^5 M^−1, respectively (Table 4), and their plots are shown in Figure 4(b). […] In light of these findings, it can be reasoned that the binding affinity to BSA is higher for the galloylated catechin than for the methylated one, which emphasises that the three phenolic groups can enhance hydrogen bonding between BSA and EGCG [25].
Fluorescence measurements were made on an automatic scanning Perkin-Elmer LS50B spectrofluorometer with 1.0 cm light path cells equipped with a 150 W xenon (XBO) light source. In all experiments, the fluorescence of BSA (5 × 10^−6 M) in 50 mM phosphate buffer of pH 7.5 was followed by excitation at 280 nm. The binding affinities of EGCG and TMCG with BSA in terms of binding constants were determined using the following equation [25]: log (F0−F)/F = log KA + n log [Q](1) where KA is the binding constant, n is the number of binding sites, F0 is the fluorescence intensity of free BSA and F is the consequent fluorescence upon the addition of catechins (Q). A plot of log (F0-F)/F against log [Q] was used to determine the values of KA and n from the intercept and the slope, respectively.

[2] = tested on: SK-MEL-28 melanoma cells; test: Apoptosis assay (cell death detection ELISA) with or without site markers; assay type: cell-based, human; details: SK-MEL-28, warfarin 10 µM
Description: Serum is commonly used as a supplement in cell culture media. It supports cell growth and product formation by providing a broad spectrum of macromolecules, attachment factors, nutrients, and hormone and growth factors. The most commonly used animal serum supplement is foetal bovine serum, FBS (alternatively called foetal calf serum—FCS). Because BSA is a major component of FBS, the in vitro activity of catechins on tumour cells might be affected by their interaction with BSA. The effect of albumin binding on the biological activity of polyphenols is unclear. Does the bound ligand have some biological activity or does the polyphenol have to be in the free form to be active? To answer this question and to determine whether BSA-catechin interactions increase or decrease catechin anti-tumour activity, the proapoptotic activity of TMCG on SK-MEL-28 melanoma cells was probed in the presence of warfarin or ibuprofen [Figure 5(b)]. […] Because the binding of catechins to BSA seems to control drug availability, the lower affinity of TMCG and TMECG for serum albumins, with respect to natural tea catechins, might contribute to the high in vivo anti-tumour activity of these methylated synthetic catechins. […]
The human melanoma cell line SK-MEL-28 was obtained from American Type Culture Collection (ATCC, Manassas, VA, USA) and was maintained in Eagles’s Minimum Essential Medium (EMEM) supplemented with 10% (v/v) FBS and antibiotics at 37 °C in a humidified atmosphere containing 7.5% CO2. Cell viability was evaluated using the MTT cell proliferation assay. Cells were evaluated for apoptosis using a cell death detection ELISA (Cell Death Detection ELISAPLUS, Roche Diagnostics, Barcelona, Spain). […] The amount of nucleosomes is photometrically quantified at 405 nm by the peroxidase activity retained in the immunocomplexes. Apoptosis was defined as the specific enrichment of mono- and oligonucleosomes in the cytoplasm and was calculated by dividing the absorbance of treated samples with the absorbance of untreated samples after correcting for the number of cells. […]

[3] = UV-visible absorption spectra at different pH (ionization state); assay type: physicochemical; details: UV-visible spectra; pH range 5.0–9.0 for TMCG and TMECG
Procedure: It has been shown that the protonation state of methotrexate, trimethoprim, and pyrimethamine modulates the binding of these antifolates to DHFRs from several sources. […] The absorbance maximum at 278 nm undergoes a bathochromic displacement to 328 nm, which is greatest at alkaline pH (pH > 9.0).
To determine if the spectral changes in the SYCG and SYECG solutions with pH were due to an irreversible oxidation reaction or to a reversible protonation step, a pH titration experiment was carried out. An alkaline solution of SYCG and SYECG (pH 8.5) was acidified to pH 2.5 by the addition of dilute HCl. A change in the spectra was observed, indicating a reversible protonation reaction. The spectral changes with pH observed in SYCG and SYECG can be attributed to the hydroxyl group para on the ester-bonded gallate moiety. At acidic pH, these derivatives are mainly present as protonated species, whereas at basic pH or values near neutrality, these derivatives evolve toward the deprotonated species, which are stabilized by resonance (Scheme 3). […] As described, an important factor that decreases catechin bioavailability might be their inability to easily cross cellular membranes by passive diffusion. The presence of several hydroxyl groups in these molecules gives them a high hydrophilic character, which increases the difficulty of passing across lipid membranes.
Ultraviolet-visible absorption spectra of catechins at different pHs were recorded on a UV-Vis Perkin-Elmer Lambda-2 spectrophotometer with a spectral bandwidth of 1 nm at a scan speed of 60 nm s^−1. The experiments were performed in the same buffer as described for DHFR binding studies, and the ionic strength remained constant at an optimum value of 0.15 over the pH range that was used. The pH of the reaction was measured before and after the experiment.

T1 sequence (P02769 25-607): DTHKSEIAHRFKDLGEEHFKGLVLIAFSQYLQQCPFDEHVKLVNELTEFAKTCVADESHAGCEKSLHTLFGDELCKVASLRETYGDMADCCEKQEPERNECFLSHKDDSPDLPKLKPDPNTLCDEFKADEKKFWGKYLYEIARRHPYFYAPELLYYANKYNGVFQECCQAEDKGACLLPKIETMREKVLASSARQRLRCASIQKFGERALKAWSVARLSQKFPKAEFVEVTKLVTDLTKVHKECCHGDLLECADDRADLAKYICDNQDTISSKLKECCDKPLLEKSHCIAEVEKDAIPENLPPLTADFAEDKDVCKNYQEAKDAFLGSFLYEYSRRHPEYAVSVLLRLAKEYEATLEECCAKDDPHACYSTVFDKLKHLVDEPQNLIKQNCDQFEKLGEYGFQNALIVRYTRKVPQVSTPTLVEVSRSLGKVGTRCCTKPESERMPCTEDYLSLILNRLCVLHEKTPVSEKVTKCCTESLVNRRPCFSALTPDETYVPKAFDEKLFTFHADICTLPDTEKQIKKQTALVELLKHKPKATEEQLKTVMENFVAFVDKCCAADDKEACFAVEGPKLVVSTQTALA

Structure (SMILES): COc1cc(C(=O)O[C@H]2Cc3c(O)cc(O)cc3O[C@@H]2c2ccc(O)c(O)c2)cc(OC)c1OC [TMCG]
- Kd ([1]; 25 °C, pH 7.5, no site marker, read-out: Binding constant (KA) for BSA-catechin complex (converted)): 5.26 µM
- Number of binding sites n ([1]; catechin-BSA complex, double logarithmic plot): approximately 1
- Proapoptotic activity of TMCG in the presence of warfarin [2]: significantly increased
- Effect of pH on absorption spectra [3]: no significant changes

Source: paper PMC6270263, “Factors Influencing the Antifolate Activity of Synthetic Tea-Derived Catechins” (Molecules, 2013)
